Measurements taken from the supplement of paper PMC10307832.

Tests used:
Assay in all cases: relative viability (nuclei count vs DMSO), 5 days (fraction); higher = more cells survive
[1] = system: NCI-H2228
Outline: (§1)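 After 5 days of treatment, lung cancer cells in 1536-well plates were fixed and stained in a single step (final 0.05% Triton X-100, 1% formaldehyde, 1 ug/ml Hoechst) and their nuclei counted on 4× images. Treatment had been applied by pin tool the day after seeding as one drug alone or as a fixed anchor-drug dose with five library-drug doses (not always all listed) in √10 steps. Relative viability is the nuclei count of treated wells divided by that of vehicle wells, and values are medians of duplicate plates.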

[2] = system: NCI-H1755
Outline: as §1

[3] = system: RERF-LC-KJ
Outline: as §1

[4] = system: NCI-H1395
Outline: as §1

[5] = system: NCI-H3122
Outline: as §1

[6] = system: LOU-NH91
Outline: as §1

[7] = system: NCI-H1793
Outline: as §1

[8] = system: LU99A
Outline: as §1

[9] = system: HCC-78
Outline: as §1

[10] = system: ChaGo-K-1
Outline: as §1

[11] = system: NCI-H1651
Outline: as §1

Question: `O=c1cc(-c2cccc3c2Sc2ccccc2S3)oc(N2CCOCC2)c1` + COc1cccc2cc(-c3nc([C@H]4CC[C@H](C(=O)O)CC4)n4ncnc(N)c34)[nH]c12 [OSI-027] (partner 0.5 µM) was tested. Which relative viability ([1]; first compound 0.08 µM) did it give?
Answer: 0.554

Question: What about the relative viability ([1]; first compound 0.253 µM) of the same compound?
Answer: 0.719

Question: What about the relative viability ([1]; first compound 0.8 µM) of the same compound?
Answer: 0.538

Question: And the relative viability ([1]; first compound 2.53 µM)?
Answer: 0.389

Question: What about the relative viability ([1]; first compound 8 µM) of the same compound?
Answer: 0.544

Question: And the relative viability ([2]; first compound 0.08 µM)?
Answer: 0.71

Question: And the relative viability ([2]; first compound 0.253 µM)?
Answer: 0.794

Question: And the relative viability ([2]; first compound 0.8 µM)?
Answer: 0.682

Question: What about the relative viability ([2]; first compound 2.53 µM) of the same compound?
Answer: 0.553

Question: And the relative viability ([2]; first compound 8 µM)?
Answer: 0.772

Question: What about the relative viability ([3]; first compound 0.08 µM) of the same compound?
Answer: 0.46

Question: What about the relative viability ([3]; first compound 0.253 µM) of the same compound?
Answer: 0.54

Question: What about the relative viability ([3]; first compound 0.8 µM) of the same compound?
Answer: 0.526

Question: And the relative viability ([3]; first compound 2.53 µM)?
Answer: 0.499

Question: And the relative viability ([3]; first compound 8 µM)?
Answer: 0.494

Question: And the relative viability ([4]; first compound 0.08 µM)?
Answer: 0.594

Question: What about the relative viability ([4]; first compound 0.253 µM) of the same compound?
Answer: 0.581

Question: And the relative viability ([4]; first compound 0.8 µM)?
Answer: 0.601

Question: What about the relative viability ([4]; first compound 2.53 µM) of the same compound?
Answer: 0.577

Question: What about the relative viability ([4]; first compound 8 µM) of the same compound?
Answer: 0.683

Question: What about the relative viability ([5]; first compound 0.08 µM) of the same compound?
Answer: 1.25

Question: What about the relative viability ([5]; first compound 0.253 µM) of the same compound?
Answer: 1.08

Question: And the relative viability ([5]; first compound 0.8 µM)?
Answer: 0.957

Question: And the relative viability ([5]; first compound 2.53 µM)?
Answer: 1.03

Question: What about the relative viability ([5]; first compound 8 µM) of the same compound?
Answer: 1.08

Question: And the relative viability ([6]; first compound 0.08 µM)?
Answer: 0.687

Question: And the relative viability ([6]; first compound 0.253 µM)?
Answer: 0.736

Question: And the relative viability ([6]; first compound 0.8 µM)?
Answer: 0.594

Question: What about the relative viability ([6]; first compound 2.53 µM) of the same compound?
Answer: 0.628

Question: What about the relative viability ([6]; first compound 8 µM) of the same compound?
Answer: 0.758

Question: And the relative viability ([7]; first compound 0.08 µM)?
Answer: 0.227

Question: And the relative viability ([7]; first compound 0.253 µM)?
Answer: 0.29

Question: What about the relative viability ([7]; first compound 0.8 µM) of the same compound?
Answer: 0.248

Question: And the relative viability ([7]; first compound 2.53 µM)?
Answer: 0.227

Question: What about the relative viability ([7]; first compound 8 µM) of the same compound?
Answer: 0.267

Question: And the relative viability ([8]; first compound 0.08 µM)?
Answer: 0.282

Question: And the relative viability ([8]; first compound 0.253 µM)?
Answer: 0.285

Question: And the relative viability ([8]; first compound 0.8 µM)?
Answer: 0.308

Question: What about the relative viability ([8]; first compound 2.53 µM) of the same compound?
Answer: 0.335

Question: And the relative viability ([8]; first compound 8 µM)?
Answer: 0.303

Question: And the relative viability ([9]; first compound 0.08 µM)?
Answer: 0.341

Question: And the relative viability ([9]; first compound 0.253 µM)?
Answer: 0.385

Question: What about the relative viability ([9]; first compound 0.8 µM) of the same compound?
Answer: 0.295

Question: What about the relative viability ([9]; first compound 2.53 µM) of the same compound?
Answer: 0.344

Question: And the relative viability ([9]; first compound 8 µM)?
Answer: 0.339

Question: What about the relative viability ([10]; first compound 0.08 µM) of the same compound?
Answer: 0.524

Question: And the relative viability ([10]; first compound 0.253 µM)?
Answer: 0.615

Question: What about the relative viability ([10]; first compound 0.8 µM) of the same compound?
Answer: 0.479

Question: What about the relative viability ([10]; first compound 2.53 µM) of the same compound?
Answer: 0.385

Question: What about the relative viability ([10]; first compound 8 µM) of the same compound?
Answer: 0.63

Question: What about the relative viability ([11]; first compound 0.08 µM) of the same compound?
Answer: 0.625

Question: What about the relative viability ([11]; first compound 0.253 µM) of the same compound?
Answer: 0.767

Question: And the relative viability ([11]; first compound 0.8 µM)?
Answer: 0.711

Question: And the relative viability ([11]; first compound 2.53 µM)?
Answer: 0.6

Question: And the relative viability ([11]; first compound 8 µM)?
Answer: 0.702
